Assay results published in patent US6825170B2, “6-O-acyl ketolide antibacterials” (Ortho-McNeil Pharmaceutical, Inc., priority 2001, dated 2004).
Values after ≈ are worked out from the molar mass of the structure shown.

Assays:
Assay in all cases: MIC, microdilution broth method (NCCLS)
Format in all cases: cell-based
Conditions in all cases: 35° C., 16-20 hours
[1] = system: S. pneumoniae ATCC49619
Procedure, shortened: (§1)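 MIC taken from visual growth relative to compound-free wells in each tray. Incubation: 35° C for 16-20 h, cation-adjusted Mueller-Hinton broth, two-fold dilution series, ~5×10^4 CFU/well.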

[2] = system: S. aureus ATCC29213
Procedure, shortened: as §1

[3] = system: H. influenzae ATCC49247
Procedure, shortened: as §1

[4] = system: E. faecalis ATCC29212
Procedure, shortened: as §1

[5] = system: E. coli OC2605
Procedure, shortened: as §1

CC[C@H]1OC(=O)[C@H](C)C(=O)[C@H](C)[C@@H](O[C@@H]2O[C@H](C)C[C@H](N(C)C)[C@H]2O)[C@](C)(OC(=O)NN(CC)CCc2ccc(-c3ncccn3)cc2)C[C@@H](C)C(=O)[C@H](C)[C@H]2NC(=O)O[C@@]21C [Compound 804]
MIC (D: S. pneumoniae ATCC49619) [1]: 0.03 µg/mL (≈ 0.0346 µM)
MIC (B: S. aureus ATCC29213) [2]: 0.5 µg/mL (≈ 0.577 µM)
MIC (E: H. influenzae ATCC49247) [3]: 8 µg/mL (≈ 9.23 µM)
MIC (C: E. faecalis ATCC29212) [4]: 0.12 µg/mL (≈ 0.138 µM)
MIC (A: E. coli OC2605) [5]: >16 µg/mL

CC[C@H]1OC(=O)[C@H](C)C(=O)[C@H](C)[C@@H](O[C@@H]2O[C@H](C)C[C@H](N(C)C)[C@H]2O)[C@](C)(OC(=O)NNC/C=C/c2ccc(-c3ncccn3)cc2)C[C@@H](C)C(=O)[C@H](C)[C@H]2NC(=O)O[C@@]21C [Compound 805]
MIC (D: S. pneumoniae ATCC49619) [1]: 0.06 µg/mL (≈ 0.0705 µM)
MIC (B: S. aureus ATCC29213) [2]: 0.25 µg/mL (≈ 0.294 µM)
MIC (E: H. influenzae ATCC49247) [3]: 2 µg/mL (≈ 2.35 µM)
MIC (C: E. faecalis ATCC29212) [4]: 0.25 µg/mL (≈ 0.294 µM)
MIC (A: E. coli OC2605) [5]: 16 µg/mL (≈ 18.8 µM)

CC[C@H]1OC(=O)[C@H](C)C(=O)[C@H](C)[C@@H](O[C@@H]2O[C@H](C)C[C@H](N(C)C)[C@H]2O)[C@](C)(OC(=O)NN(C/C=C/c2ccc(-c3ncccn3)cc2)C/C=C/c2ccc(-c3ncccn3)cc2)C[C@@H](C)C(=O)[C@H](C)[C@H]2NC(=O)O[C@@]21C [Compound 806]
MIC (D: S. pneumoniae ATCC49619) [1]: 0.12 µg/mL (≈ 0.115 µM)
MIC (B: S. aureus ATCC29213) [2]: 2 µg/mL (≈ 1.91 µM)
MIC (E: H. influenzae ATCC49247) [3]: 16 µg/mL (≈ 15.3 µM)
MIC (C: E. faecalis ATCC29212) [4]: 1 µg/mL (≈ 0.957 µM)
MIC (A: E. coli OC2605) [5]: >16 µg/mL

CC[C@H]1OC(=O)[C@H](C)C(=O)[C@H](C)[C@@H](O[C@@H]2O[C@H](C)C[C@H](N(C)C)[C@H]2O)[C@](C)(OC(=O)NN2CCC(c3ccccc3)CC2)C[C@@H](C)C(=O)[C@H](C)[C@H]2NC(=O)O[C@@]21C [Compound 807]
MIC ([1]; Streptococcus pneumoniae, read-out: MIC (D: S. pneumoniae ATCC49619)): 0.12 µg/mL (≈ 0.15 µM)
MIC ([2]; Staphylococcus aureus, read-out: MIC (B: S. aureus ATCC29213)): 2 µg/mL (≈ 2.5 µM)
MIC ([3]; Haemophilus influenzae, read-out: MIC (E: H. influenzae ATCC49247)): 4 µg/mL (≈ 4.99 µM)
MIC ([4]; Enterococcus faecalis): 1 µg/mL (≈ 1.25 µM)
MIC ([5]; Escherichia coli): > 16 µg/mL
